Laboratory results: US11560545B2, “Polymeric carriers and methods” (The Brigham and Women's Hospital, Inc., priority 2017, dated 2023)

Tests used:
3T3 fibroblasts = test: in vitro cytotoxicity by MTT assay; format: cell-based
[1] = test system: human mesenchymal stem cells (hMSC); test: DTT / digestion solution cytotoxicity to hMSC; format: cell-based; conditions: short exposure (<30 minutes), high concentration of DTT (50 mM)
Experimental: Also, the DTT cytotoxicity to human mesenchymal stem cells (hMSC) was studied, as depicted at FIG. 3C. […], hMSC presented low viability—80% to 85%—at the high concentration of DTT (50 mM).

hMSCs = test: cell viability after full digestion with digestion agents; conditions: 0.015 M sodium citrate solutions
Experimental: The cell viability was calculated after full digestion due to the concern of potential cytotoxicity from the digestion agents.

Compound | cytotoxicity (MTT) (3T3 fibroblasts; 50 mM DTT solution) | cytotoxicity (MTT) (3T3 fibroblasts; low concentration 1 mM, compared to DPBS) | cytotoxicity (MTT) (3T3 fibroblasts; working concentration 10 mM, compared to DPBS) | hMSC tolerance [1] | cytotoxicity to hMSCs (hMSCs)
O[C@H](CS)[C@H](O)CS (racemic) [DTT, dithiothreitol] | significant cytotoxicity | no significant cytotoxicity | no significant cytotoxicity | tolerant | 
O=C([O-])CC(O)(CC(=O)[O-])C(=O)[O-].[Na+].[Na+].[Na+] [sodium citrate] |  |  |  |  | certain level of cytotoxicity
